Measured values reported in US7101915B1, “P-terphenyl compounds” (Shionogi & Co., Ltd., priority 1996, dated 2006).
Converted amounts (≈) assume the structure as drawn. Marks after values point to notes of the source that are not given here.

Assays:
[1] = tested on: BGG-specific IgE in a serum; assay: Suppressive effect on the antibody production against bovine γ globulin (BGG), sandwich ELISA; type: in vivo, BALB/c mice; conditions: 100 mg/kg p.o. every day, serum after 21 days
Description: Experiment 3 Suppressive Effect on the Antibody Production Against Bovine γ Globulin (BGG)
On an immunizing day and 7 days after, 50 μg of BGG was subcutaneously inoculated to backs of BALB/c mice (male, 6-8 weeks old) for inducing an immune reaction. After the compound of the present invention was dissolved or suspended in N, N-dimethylacetoamide, the mixture was diluted with miglyol 812 neutral oil. A proper volume of the compound was orally administered (p.o.) to mice every day from the next day of the immunizing. A two hundredth weight to body weight of miglyol was administered to mice in a control group. After 21 days, blood was drawn from each mouse and a serum was separated. BGG-specific IgE in a serum was measured by the sandwich ELISA method using a BGG-coating plate. The suppressive rate of IgE production was calculated from the dilution rate of the serum which has the same absorption intensity as that of the control group for judging the effect of the compound of the present invention.

[2] = tested on: mouse thymoma strain EL4 cells; assay: Anti-proliferative activity on EL4 cells (MTT); type: cell-based; conditions: 3 days
Description: Experiment 2 Anti-Proliferative Activity on EL4 Cells
In 96-well microtiter plate 4×10^4/0.1 ml of mouse thymoma strain EL4 cells were added and 0.1 ml of the compound of the present invention was added to the mixture so that the concentration was in the range of 0-5,000 ng/ml. After the cultivation for 3 days, the IC50 was calculated by the MTT method as described in Experiment 1.

[3] = tested on: C3H/HeN mouse splenocytes stimulated with Concanavalin A (Con A); assay: Suppressive effect on mitogenic activity of mouse splenocytes in vitro, Con A as mitogen (MTT); type: cell-based; conditions: Con A 5 μg/ml as mitogen, 3 days
Description: (§1) Experiment 1 Suppressive Effect on a Mitogenic Activity of Mouse Splenocytes In Vitro
(§2) In 96-well microtiter plate 5×10^5 C3H/HeN mouse splenocytes suspended in 0.1 ml of 10% fetal bovine serum-fortified RPMI 1640 medium containing 2 mM of sodium bicarbonate, 50 units/ml of penicillin, 50 μg/ml of streptomycin and 5×10^−5 M of 2-mercaptoethanol were added. Then, 5 μg/ml of Concanavalin A (Con A) or 10 μg/ml of lipopolysaccharide (LPS) as a mitogen and the compound of a pre-determined concentration of the present invention were added to each well so that a final volume of each well reached 0.2 ml. Each compound of the present invention was dissolved in dimethylsulfoxide (DMSO) and diluted with the above RPMI 1640 medium to adjust the final concentration of 100 ng/ml or less. The splenocytes in the 96-well microtiter plate were cultivated at 37° C. for 3 days in an incubator keeping the humidity 100%, carbon dioxide 5% and air 95%. Then, 25 μl of 6 mg/ml MTT [3-(4,5-dimethylthiazol-2-yl)-2,5-diphenyltetrazolium bromide] (Sigma) was added to the each well and cultivated at 37° C. for 4 hours under the same conditions. After the cultivation, 50 μl of 0.02 N hydrochloric acid in 20% sodium dodecyl sulfate (SDS) was added to formazan generated and left at 37° C. for 24 hours for dissolving formazan. An absorption intensity (OD) of formazan generated in proportion to the number of living cells was measured with an immunoreader (InterMed) equipped with a 570 nm filter (The Journal of Immunological Method, 65, 55-63, 1983). The 50% inhibitory concentration of a cell proliferation (IC 50) was calculated from a correlation between the concentration of the compound of the present invention and the absorption intensity.

[4] = tested on: C3H/HeN mouse splenocytes stimulated with lipopolysaccharide (LPS); assay: Suppressive effect on mitogenic activity of mouse splenocytes in vitro, LPS as mitogen (MTT); type: cell-based; conditions: LPS 10 μg/ml as mitogen, 3 days
Description: as §1, §2

[5] = tested on: anti-OVA IgE antibody titer (PCA titer); assay: Suppressive effect on the IgE production against ovalbumin (OVA), PCA titer; type: in vivo, BALB/c mice; conditions: untreated group 9-12
Description: Experiment 4 Suppressive Effect on the IgE Production Against Ovalbumin (OVA)
BALB/c mice (female, 8-10 weeks old) and Wistar rats (female, 8-10 weeks old) which were bought from Japan SLC, Inc. (Shizuoka) were used.
BALB/c mice were immunized by an intraperitoneal administration of 0.2 ml suspension of 2 μg of ovalbumin (OVA) and 2 mg of aluminium hydroxide gel in physiological saline. After 10 days, blood was drawn from hearts, sera were separated and stocked at −40° C. till the measurement of an IgE antibody titer.
After the compound of the present invention was dissolved or suspended in N, N-dimethylacetoamide, the mixture was diluted 20 times with miglyol 812 neutral oil. The obtained solution was orally administered to mice at 0.1 ml per mouse. The administration was continued for 10 days from the immunizing day to the day before drawing blood. IPD-1151-T (a compound described in Jpn. Pharmacol. (1993) 61, 31–39) and a compound No. 36 (a compound 36 described in J. Med. Chem. (1997) 40: 395–407) were examined as controls by the same method.
4) Measurement of Anti-OVA IgE Antibody Titer (PCA Titer)
The samples 2-fold diluted with physiological saline were prepared from the obtained mouse serum and each 50 μl of the solution was intradermally injected to backs of Wistar rats which previously hair cut. After 24 hours, a passive cutaneous anaphylaxis reaction (PCA) was induced by an intravenous injection of 0.5 ml of physiological saline containing 1 mg of OVA and 5 mg of Evans' blue dye. After 30 minutes, the rats were sacrified and the highest dilution rate of the serum giving bluing with a diameter of more than 5 mm was recorded as the PCA titer. For example, when a serum is positive for the PCA reaction till […], the anti-OVA IgE antibody titer of the mouse is defined as 7.

[6] = tested on: IL-5 production of mouse T cell strain EL-4 (TPA); assay: Suppressive effect on the cytokine production of mouse T cell strain EL-4: IL-5; type: cell-based; conditions: EL-4, TPA 10 ng/ml, 24 hours, ELISA
Description: (§3) Experiment 8 Suppressive Effect on the Cytokine Production of a Mouse T Cell Strain EL-4 In 48-well plate were added 2×10^5 mouse T cell strain EL-4 which were suspended in 0.2 ml of 1% fetal bovine serum-added RPMI 1640 medium (2 mM of sodium bicarbonate, 50 units/ml of penicillin, 50 μg/ml of streptomycin and 5×10^−5 M of 2-mercaptoethanol were added) and the compound of the present invention of a predetermined concentration. TPA was added as a cell stimulater at a final concentration of 10 ng/ml to adjust a final volume of each well to 0.4 ml. Each compound of the present invention was dissolved in DMSO and diluted with the above RPMI 1640 medium, and then for added at a final concentration of 100 ng/ml or less. The cells in the 48-well plate were cultivated in an incubator keeping the humidity 100%, carbon dioxide 5% and air 95% at 37° C. for 24 hours to collect a supernatant of each well. The amount of IL-2, IL-4 and IL-5 released in the medium of each well were measured with the ELISA kit (Amersham K. K.) to be taken as an index of the cytokine production of the cells. TPA free group (-TPA) was used as a control.

[7] = tested on: IL-4 production of mouse T cell strain EL-4 (TPA); assay: Suppressive effect on the cytokine production of mouse T cell strain EL-4: IL-4; type: cell-based; conditions: EL-4, TPA 10 ng/ml, 24 hours, ELISA
Description: as §3

[8] = tested on: IL-2 production of mouse T cell strain EL-4 (TPA); assay: Suppressive effect on the cytokine production of mouse T cell strain EL-4: IL-2; type: cell-based; conditions: EL-4, TPA 10 ng/ml, 24 hours, ELISA
Description: as §3

Compound: CC(C)=CCOc1ccc(-c2cc(C)c(-c3ccc(O)cc3)cc2C)cc1O [Compound I-525]
- Suppressive rate of antigen-specific IgE [1]: >95%
- EL-4 IC50 [2]: 0.005 µg/mL
- ConA IC50 [3]: 0.00076 µg/mL
- LPS IC50 [4]: 0.00111 µg/mL

Compound: COc1cc(-c2ccc(O)cc2)c(OC)c(O)c1-c1ccc(OCC=C(Br)Br)c(O)c1 [Compound I-931]
- IC50 ([2]; Mus musculus, 72 h, read-out: EL-4 IC50): 0.00437 µg/mL (≈ 0.00791 µM)
- melting point: 166 to 168 °C
- IC50 ([3]; Mus musculus, Splenocyte, 72 h, read-out: ConA IC50): 0.00293 µg/mL (≈ 0.00531 µM)
- IC50 ([4]; Mus musculus, Splenocyte, 72 h): 0.00576 µg/mL (≈ 0.0104 µM)

Compound: CC(C)=CCNc1ccc(-c2cc(C)c(-c3ccc(N(C)C)cc3)cc2C)cc1F [Compound I-925]
- melting point: 100 to 102 °C
- PCA Titer ([5]; 40 mg/kg orally for 10 days): 1**

Compound: COc1cc(-c2ccc(NCC=C(C)C)c(F)c2)c(OC)cc1-c1ccc(N(C)C)cc1 [Compound I-484]
- EL-4 IC50 [2]: 0.0914 µg/mL
- ConA IC50 [3]: 0.0147 µg/mL
- PCA Titer ([5]; 40 mg/kg orally for 10 days): <0
- LPS IC50 [4]: 0.0322 µg/mL

Compound: CC#CCOc1ccc(-c2c(OC)cc(-c3ccc(O)cc3)c(OC)c2O)cc1O [Compound I-40]
- EL-4 IC50 [2]: 0.0374 µg/mL
- ConA IC50 [3]: 0.0061 µg/mL
- LPS IC50 [4]: 0.0165 µg/mL

Compound: COc1cc(-c2ccc(N(C)C)cc2)c(OC)c(OS(C)(=O)=O)c1-c1ccc(OCc2ccccc2)c(O)c1 [Compound I-360]
- EL-4 IC50 [2]: 0.0998 µg/mL
- ConA IC50 [3]: <0.02 µg/mL
- LPS IC50 [4]: <0.02 µg/mL

Compound: O=C(Cc1ccc(Oc2ccc3cc(OCc4ccccc4)ccc3c2)cc1)Nc1ccccc1C(=O)O [No.36]
- PCA Titer ([5]; 10 mg/kg orally for 10 days): 10.4

Compound: COc1cc(-c2ccc(O)cc2)c(OC)c(O)c1-c1ccc(OC/C=C(/C)CO)c(O)c1 [Compound I-299]
- EL-4 IC50 [2]: 0.0136 µg/mL
- ConA IC50 [3]: 0.00553 µg/mL
- LPS IC50 [4]: 0.00785 µg/mL

Compound: COCOc1c(OC)c(-c2ccc(OC)cc2)cc(OC)c1-c1ccc(OCc2ccccc2)c(O)c1 [Compound I-107]
- EL-4 IC50 [2]: 0.012 µg/mL
- ConA IC50 [3]: 0.0006 µg/mL
- LPS IC50 [4]: 0.0007 µg/mL

Compound: CCOCC(O)COc1ccc(NC(=O)CC[S+](C)C)cc1.Cc1ccc(S(=O)(=O)[O-])cc1 (stereo not shown) [IPD-1151-T, Suplatast Tosilate, reference compound]
- PCA Titer ([5]; 50 mg/kg orally for 10 days): 9.8

Compound: COc1ccccc1-c1cc(OC)c(-c2ccc(OCC=C(C)C)c(O)c2)c(O)c1OC [Compound I-276]
- EL-4 IC50 [2]: 0.2 µg/mL
- ConA IC50 [3]: 0.0018 µg/mL
- LPS IC50 [4]: 0.0031 µg/mL

Compound: COc1cc(-c2ccc3c(c2)OCO3)c(OC)c(O)c1-c1ccc(OCC=C(C)C)c(O)c1 [Compound I-62]
- EL-4 IC50 [2]: 0.0234 µg/mL
- ConA IC50 [3]: 0.0292 µg/mL
- LPS IC50 [4]: 0.025 µg/mL

Compound: COc1cc(-c2c(OC)cc(-c3ccc(OS(C)(=O)=O)cc3)c(OC)c2OS(C)(=O)=O)ccc1OCC=C(C)C [Compound I-248]
- EL-4 IC50 [2]: 0.312 µg/mL
- ConA IC50 [3]: <0.01 µg/mL
- LPS IC50 [4]: <0.01 µg/mL

Compound: COc1cc(-c2ccc(C(C)C)cc2)c(OC)c(OS(C)(=O)=O)c1-c1ccc(OCc2ccccc2)c(O)c1 [Compound I-361]
- EL-4 IC50 [2]: 0.124 µg/mL
- ConA IC50 [3]: <0.02 µg/mL
- LPS IC50 [4]: <0.02 µg/mL

Compound: C/C=C\COc1ccc(-c2c(OC)cc(-c3ccc(O)cc3)c(OC)c2O)cc1O [Compound I-173]
- EL-4 IC50 [2]: <0.02 µg/mL
- ConA IC50 [3]: <0.02 µg/mL
- LPS IC50 [4]: <0.02 µg/mL

Compound: CC/C=C\COc1ccc(-c2c(OC)cc(-c3ccc(O)cc3)c(OC)c2O)cc1O [Compound I-9]
- EL-4 IC50 [2]: <0.02 µg/mL
- ConA IC50 [3]: <0.02 µg/mL
- LPS IC50 [4]: <0.02 µg/mL

Compound: COc1cc(-c2ccc(OCC=C(C)C)c(O)c2)c(OC)cc1-c1ccc(OCC=C(C)C)c(O)c1 [Compound I-66]
- EL-4 IC50 [2]: 0.00048 µg/mL
- ConA IC50 [3]: 0.00022 µg/mL
- LPS IC50 [4]: 0.00035 µg/mL

Compound: COc1cc(-c2ccc(OCc3ccccc3)c(O)c2)c(OC)cc1-c1ccc(OCc2ccccc2)c(O)c1 [Compound I-63]
- EL-4 IC50 [2]: 0.016 µg/mL
- ConA IC50 [3]: 0.013 µg/mL
- LPS IC50 [4]: 0.027 µg/mL

Compound: C#CC(O)COc1ccc(-c2c(OC)cc(-c3ccc(O)cc3)c(OC)c2O)cc1O (stereo not shown) [Compound I-301]
- IC50 IL-5 [6]: 0.12 µg/mL (≈ 0.284 µM)
- EL-4 IC50 [2]: 0.0158 µg/mL
- IC50 IL-4 [7]: <0.01 µg/mL
- ConA IC50 [3]: 0.00706 µg/mL
- LPS IC50 [4]: 0.011 µg/mL
- IC50 IL-2 [8]: 0.5 µg/mL (≈ 1.18 µM)

Compound: COc1cc(-c2ccc(O)cc2)c(OC)c(O)c1-c1ccc(OCc2ccco2)c(O)c1 [Compound I-211]
- EL-4 IC50 [2]: <0.02 µg/mL
- ConA IC50 [3]: <0.02 µg/mL
- LPS IC50 [4]: <0.02 µg/mL
